Source: patent publication US20210254101A1, “METHODS FOR TREATING SPINAL CORD INJURY” (THE CHILDREN'S MEDICAL CENTER CORPORATION, priority 2018, published 2021)

How the values were obtained:
[1] = tested on: mice with a complete T8 spinal cord transection; test: BMS open field locomotion after complete T8 spinal cord transection; assay type: in vivo, mouse; details: complete T8 transection; same treatment as in staggered lesion; FIG. 7E
Source text: CLP290's effects could result from reactivating the spared dormant descending connections in the spinal cord after SCI. However, it could also act directly on the lumbar spinal cord, independently of descending inputs. […] Therefore, different from this transient effector that acts directly on the lumbar spinal cord, the effects of CLP290 on functional improvement are dependent on spared connections.
The procedure of T8 full transection was similar to that described elsewhere (Courtine et al., 2009). Briefly, a midline incision was made over the thoracic vertebrae, followed by a T8 laminectomy. The complete T8 transection was then performed carefully using both a scalpel and micro-scissors. The muscle layers were then sutured and the skin was secured with wound clips.
(§1) Behavioral Experiments. Motor function was evaluated with a locomotor open field rating scale on the Basso Mouse Scale (BMS). For transient pharmacological treatments, ten to fifteen minutes (van den Brand et al., 2012) prior to behavioral tests (grounding walking, all of which were performed individually), mice received systematic administration (i.p.) of the neural modulators listed above. It is important to note that with a single intraperitoneal injection, plasma CNO levels peak at 15 min and become very low by 2 h after injection (Guettier et al., 2009). For chronic pharmacological treatments, 24 hours prior to behavioral tests, mice received systematic administration of the compounds listed above. All behavioral tests were completed within 1-3 hours. For detailed hindlimb kinematic analysis, mice from different groups were placed in the MotoRater (TSE Systems, (Zorner et al., 2010)), and all kinematic analysis was performed based on data collected by the MotoRater.

[2] = tested on: propriospinal and brain-derived descending axons; test: Axon regrowth tracing: retrograde HiRet-mCherry, anterograde AAV-ChR2, 5-HT immunohistochemistry; assay type: in vivo, mouse
Procedure: To test these possibilities, it was determined whether CLP290 increased the regrowth of spared propriospinal axons, and/or their connecting axons from the brain. To analyze neuronal projections to the hindlimb locomotor control center in each condition, a retrograde tracing pseudotyped lentiviral vector (HiRet) expressing mCherry (HiRet-mCherry) (Kato et al., 2011; Wang et al., 2017; Liu et al., 2017) was injected into the lumbar enlargement (L2-L4). At 2 weeks after injury, most retrogradely labeled neurons were found in the spinal cord segments between and around the lesions, with few above the lesion and none in the brain ([…]). […] Similarly, the sprouting of serotonergic axons detected by 5-HT immunohistochemistry was also not affected by CLP290 treatment (FIG. 9D-9F). Thus, it is unlikely that CLP290 acts by promoting the regrowth of brain-derived descending axons into the relay zone, or propriospinal axons projecting to the lumbar spinal cord.
For reticulospinal tracing experiments (procedure was described previously (Esposito et al., 2014)), AAV2/8-ChR2-YFP and AAV2/8-ChR2-mCherry were injected into the mouse right and left reticular formation in the brain stem respectively. For CST tracing experiments (procedure was described previously (Liu et al., 2010; Liu et al., 2017)), AAV2/8-ChR2-mCherry was injected to the mouse right sensorimotor cortex (all AAV titers were adjusted to 0.5-5×10^13 copies/ml for injection, produced by The Viral Core, Boston Children's Hospital). For lumbar level retrograde tracing, vectors of HiRet-mCherry (lenti-virus titers were adjusted to 1.6-2×10^12 copies/ml for injection) were constructed based on the HiRet-lenti backbone (Kinoshita et al., 2012). Injection procedure was described previously (Wang et al., 2017), in which HiRet-mCherry is injected into left or right lumbar spinal cord from segments 2-4.
Spinal cord transverse and horizontal sections were imaged with a confocal laser-scanning microscope (Zeiss 700 or Zeiss 710). To quantify and compare fluorescence intensity of: reticular spinal tract projections (RFP^+ and GFP^+), and corticospinal tract (CST) projections (GFP^+), at different transverse spinal cord segments sections (FIGS. 10A and 10C); as well as 5HT axonal staining (FIG. 10B). All images, used for analysis under multiple conditions, were taken using the same optical parameters to avoid saturation. Densitometry measurements were taken by using FIJI software, after being sub-thresholded to the background and normalized by area.
aTo quantify and compare the retrograde HiRet-marked cell body of spinal neurons in different treatments, all images were decomposed to individual channels and planes. They were aligned and quantified using custom-developed MATLAB codes. […]

[3] = tested on: mice with staggered lesions; test: Cortical stimulation with EMG responses recorded in the TA muscle; assay type: in vivo, mouse; details: injured mice, compared to controls; FIG. 5D-5F
Procedure: To test directly if the treated spinal cord could more efficiently relay descending inputs to the lumbar spinal cord, cortical stimulation was performed and recorded EMG responses in the TA muscle (FIG. 5D). […] Thus, KCC2 treatment facilitates the transmission of descending inputs from the brain to the lumbar spinal cord.
For epidural stimulation and EMG recording, a customized head plate was secured over the skull, and a monopolar stimulation electrode (SSM33A05, World Precision Instruments, Inc.) was positioned epidurally over the representative hindlimb area of left motor cortex. A train of electrical stimuli (0.2 ms biphasic pulse, 100 ms pulse train, 20 Hz, 0.5-1.5 mA) was generated by pulse generator and isolator (Master 9 and Iso-Flex, A.M.P.I.), and delivered during quadrupedal standing in fully awake condition. Testing was performed without and with electrochemical stimulations. Peak-to-peak amplitude and latency of evoked responses were computed from EMG recordings of the right TA muscle.

[4] = tested on: mice with staggered lesions; test: Hindlimb kinematic analysis (MotoRater) and EMG recording of TA and GS muscles during stepping; assay type: in vivo, mouse
Source text: This extent of recovery is functionally significant, as stepping ability has been implicated as the limiting step for functional recovery in severe injury models (Schucht et al., 2002).
EMG Recording and cortical stimulation. The procedure for EMG recording in free moving animals was similar to that described previously (Pearson et al., 2005). In brief, at 9 weeks after surgery, 5 mice from each group (Control, CLP290 and AAV-KCC2 treated mice) underwent implantation of customized bipolar electrodes into selected hindlimb muscles to record EMG activity. Electrodes (793200, A-M Systems) were led by 30 gauge needles and inserted into the mid-belly of the medial gastrocnemius (GS) and tibialis anterior (TA) muscles of the right hindlimb. A common ground wire was inserted subcutaneously in the neck-shoulder area. Wires were routed subcutaneously through the back to a small percutaneous connector securely cemented to the skull of the mouse. EMG signals were acquired using a differential AC amplifier (1700, A-M Systems, WA) with 10-1000 Hz filtration, sampled at 4 kHz using a digitizer (PowerLab 16/35, ADInstruments), and analyzed by LabChart 8 (ADInstruments).
as §1

[5] = tested on: neuropathic pain; details: animal models; Gagnon et al., 2013; Ferrini et al., 2017; Knabl et al., 2008; cited from earlier work

Compound: O=C1N=C(N2CCCCN2)S/C1=C\c1ccc(F)cc1OC(=O)N1CCCC1 [CLP290, [5-Fluoro-2-[(Z)-(2-hexahydropyridazin-1-yl-4-oxo-thiazol-5-ylidene)methyl]phenyl] pyrrolidine-1-carboxylate]
- functional recovery (BMS), chronic treatment [1]: failed to promote any significant functional recovery
- sprouting of serotonergic axons ([2]; 5-HT immunohistochemistry, FIG. 9D-9F): not affected
- number of retrogradely traced neurons in the spinal cord ([2]; HiRet-mCherry injected into L2-L4, 10 weeks after injury, FIGS. 8C and 8F): did not affect these measures
- sprouting of descending brainstem reticulospinal axons ([2]; anterograde tracing with AAV-ChR2-mCherry and AAV-ChR2-GFP, 2 and 10 weeks after injury, FIG. 9A-9C): failed to reveal increased sprouting
- sprouting of corticospinal axons ([2]; anterograde tracing, 2 and 10 weeks after injury, FIG. 9G-9I): failed to reveal increased sprouting
- amplitude of evoked EMG signals in TA muscle [3]: significantly increased
- total hindlimb stride length ([4]; 9 weeks post staggered injury, versus vehicle, FIG. 1J): significantly increased
- TA/GS activation pattern during stepping gait ([4]; compared with alternating TA/GS activation in intact mice, FIG. 1K): co-activation of TA and GS during the swing phase
- oscillation of hindlimb joints ([4]; staggered-lesioned mice during stepping, FIGS. 1H-1K): significantly increased oscillation of hindlimb joints
- bodyweight support during stepping ([4]; staggered-lesioned mice, 8-9 weeks after injury): could partially support their body weight
- EMG activity of tibialis anterior (TA) and gastrocnemius soleus (GS) muscles ([4]; staggered-lesioned mice, FIG. 1K, 2H): showed both TA and GS activity
- effect on neuropathic pain [5]: effectively treat neuropathic pain in animal models
